{
  "source": "patent US20160270400A1",
  "about": "“Liposome-Attractant Formulations” (priority 2013, published 2016)",
  "key": {"[1]": {"system": "citrus nematode", "details": "0.5 hour exposure, same concentration; cited from earlier work"}, "[2]": {"system": "free living nematodes in soil", "details": "24 hour exposure; cited from earlier work"}, "[3]": {"system": "Root-Knot larvae (J2)", "assay": "Effect of nematicides (Oxamyl, Thiodicarb) on Root-Knot larvae (J2) in vitro", "design": "species or system M. incognita", "details": "for Root-Knot larvae (J2) Alive / Root-Knot larvae (J2) Dead: room temperature, one replicate per line; for Root-Knot larvae (J2) Alive / Root-Knot larvae (J2) Dead / Root-Knot larvae (J2) Alive, non-mobile: 2 days; for Root-Knot larvae (J2) Alive, non-mobile: alive larvae given as non-mobile", "protocol": "M. incognita eggs collected from tomato cultures by NaOC1 extraction (Hussey and Barker, 1973). Briefly, six to twelve week old infected tomato roots were cut into 1-2 segment. Root segments were shacked vigorously in 200 ml of a 0.5% Na O Cl solution for 4 min. Then, the Na O Cl solution was passed quickly through a 200-mesh (75-μm), nested over a 500-mesh sieve to collect freed eggs. The a 500-mesh sieve with eggs was quickly placed under a stream of cold water to remove residual Na O cl and rinsed several times. About 50 ml queous suspension of eggs was collected and number of eggs per unit volume will be counted. The egg suspension was allowed to sit at room temperature for 4 days. The hatching juveniles were collected and used in the subsequent experiments.\nDetermine the efficient concentration of nematicides (Oxamyl and Thidiocarb) that kill or suppress Root-Knot Larvae.\nM. incognita eggs collected from tomato cultures by NaOC1 extraction (Hussey & Barker, Plant Disease Reporter. 57:1025-1028 (1973)). Egg suspension was incubated at room temperature until larvae were hatched (4-5 days). The juveniles (J2) were counted and evaluated for activity/mobility for the duration of the study. Four different concentrations of both nematicides (Oxamyl and Thiodicarb) were used to assess their efficacy in killing the nematodes. These were untreated control, 200 ug, 1 mg, 2 mg, and 10 mg. Three replicates of the each concentration were mixed with J2 suspensions and incubated at room temperature for 2 days.\nWe studied the efficiency of Oxamyl; 200 ug/ml and 100 ug/ml in suppression of J2. […] We used 100 ug of Oxamyl in subsequent studies with liposomes."}, "[4]": {"system": "root-knot nematodes", "assay": "Nematicidal activity of Oxamyl-liposome formulation on root-knot nematodes", "type": "in vivo, M. incognita", "details": "where oxamyl was added (oxamyl-liposome test, FIG. 1)", "protocol": "Liposomes having an aqueous core and phospholipid bilayers were prepared using the thin-film dehydration-rehydration method obtaining, multilamilar vesicles (MLVs) and small unilamellar vesicles (SUVs) (Bangham et al., J. Mol. Biol. 13:238-252 (1965); Gosangari & Watkin, Pharm Dev Technol. 17:383-8 (2012)). Using thin-film hydration method, briefly, required amounts of lipids [1,2-Dipalmitoyl-sn-glycero-3-phosphocholine (DPPC) liposomes and 1, 2-distearoyl-snglycero- 3-phosphocholine (DSPC)] were dissolved in chloroform, and a thin film will be formed on the inner side of the round bottom flask, by evaporating the solvent under vacuum using a rotavapor. The lipid film formed was stored overnight in vacuum desiccator to eliminate traces of chloroform. The film was then hydrated at 58° C., above the Tc of DSPC, using 10 mL of phosphate-buffered saline (PBS, 20 mM […], 150 mM NaCl, pH 7.0) containing different concentration of Oxamyl. […] The unencapsulated oxamyl was then separated using Sephadex G-50 macrospin columns and the encapsulation efficiency was calculated spectrophotometrically at 280 nm. […]\nM. incognita eggs collected from tomato cultures by NaOC1 extraction (Hussey & Barker, Plant Disease Reporter. 57:1025-1028 (1973)). […] The juveniles (J2) were counted and evaluated for activity/mobility for the duration of the study. […]"}, "[5]": {"system": "nematode", "details": "comparison figure; cited from earlier work"}, "[6]": {"assay": "Abamectin or liposomal abamectin applied to soil prior to planting: gall formation, root necrosis, root length", "type": "in vivo", "protocol": "Abamectin at 5μg or 1μg was directly applied to soil prior to planting. Alternatively abamectin was loaded into liposomes at either 5μg or 1 μg and applied to soil prior to planting. Gall formation was detected. […] Therefore, liposomal abamectin formulations enhance root length as compared to non-liposomal abamectin formulations."}},
  "note": "“And” between values parts separate entries of the source, which are not always exact repeats. Equal values may be shown once.",
  "data": [
    {"compound": "BrCCBr", "note": "[EDB, ethylene dibromide]", "values": [
      {"measurement": "survival", "setting": "[1]", "value": "did not survive"},
      {"measurement": "population killed", "setting": "[2]", "value": 75, "unit": "%"}
    ]},
    {"compound": "CS/C(C)=N\\OC(=O)N(C)SN(C)C(=O)O/N=C(\\C)SC", "note": "[Larvin (Thiodicarb), Thiodicarb]", "values": [
      {"measurement": "Root-Knot larvae (J2) Alive", "setting": "[3]; 200 ug", "value": "76 and 86 and 89"},
      {"measurement": "Root-Knot larvae (J2) Dead", "setting": "[3]; 200 ug", "value": "23 and 14 and 11"},
      {"measurement": "Root-Knot larvae (J2) Alive", "setting": "[3]; 1 mg", "value": "75 and 82 and 63"},
      {"measurement": "Root-Knot larvae (J2) Dead", "setting": "[3]; 1 mg", "value": "25 and 18 and 37"},
      {"measurement": "Root-Knot larvae (J2) Alive", "setting": "[3]; 2 mg", "value": "70 and 85 and 65"},
      {"measurement": "Root-Knot larvae (J2) Dead", "setting": "[3]; 2 mg", "value": "30 and 15 and 35"},
      {"measurement": "Root-Knot larvae (J2) Alive, non-mobile", "setting": "[3]; 10 mg", "value": "70 non-mobile and 80 non-mobile"},
      {"measurement": "Root-Knot larvae (J2) Dead", "setting": "[3]; 10 mg", "value": "30 (2×) and 20"},
      {"measurement": "concentration required to kill Root-Knot (J2)", "setting": "[3]; compared with Oxamyl, reason for elimination", "value": "required higher concentration to kill Root-Knot (J2)"}
    ]},
    {"compound": "CNC(=O)O/N=C(\\SC)C(=O)N(C)C", "note": "[Oxamyl (Vydate), Methyl N′N′-dimethyl-N-[(methylcarbamoyl)oxy]-1-thiooxamimidate]", "values": [
      {"measurement": "Root-Knot larvae (J2) Alive, non-mobile", "setting": "[3]; 200 ug", "value": "60 non-mobile and 58 non-mobile and 50 non-mobile"},
      {"measurement": "Root-Knot larvae (J2) Dead", "setting": "[3]; 200 ug", "value": "40 and 42 and 50"},
      {"measurement": "Root-Knot larvae (J2) Alive", "setting": "[3]; 1 mg", "value": 0},
      {"measurement": "Root-Knot larvae (J2) Dead", "setting": "[3]; 1 mg", "value": 100},
      {"measurement": "Root-Knot larvae (J2) Alive", "setting": "[3]; 2 mg", "value": 0},
      {"measurement": "Root-Knot larvae (J2) Dead", "setting": "[3]; 2 mg", "value": 100},
      {"measurement": "Root-Knot larvae (J2) Alive", "setting": "[3]; 10 mg", "value": 0},
      {"measurement": "Root-Knot larvae (J2) Dead", "setting": "[3]; 10 mg", "value": 100},
      {"measurement": "mortality at 100 µg/mL", "setting": "[3]; Meloidogyne incognita, 100 ug/ml", "value": 100, "unit": "%"},
      {"measurement": "mortality at 200 µg/mL", "setting": "[3]; Meloidogyne incognita, 200 ug/ml", "value": 100, "unit": "%"},
      {"measurement": "state of larvae", "setting": "[4]", "value": "dead or paralyzed"}
    ]},
    {"compound": "abamectin [non-liposomal abamectin]", "values": [
      {"measurement": "amount of abamectin needed to treat nematodes when not encapsulated by liposomes", "setting": "[5]", "value": "about 2982 mg/acre"},
      {"measurement": "gall formation", "setting": "[6]; 1 μg applied to soil prior to planting, FIG. 3", "value": "most gall formulation"},
      {"measurement": "root necrosis", "setting": "[6]; 5 μg applied to soil prior to planting, FIG. 4", "value": "most root necrosis"}
    ]}
  ]
}
